# Data: patent US20240365779A1, “POLLEN PRESERVATION COMPOSITIONS” (PowerPollen, Inc., priority 2017, published 2024)
# Entries after “also recorded” stand apart in the source; their conditions may differ.
# Experiments:
# maize pollen [1] = assay: Maize pollen viability by Amphasys impedance flow cytometry after storage with a substance; type: cell-based; conditions: 1:1 volume pollen to sugar, 4° C.
# Description: In initial experiments considering different types separation compounds to use for pollen storage, experiments were conducted using activated charcoal as a separator. Field pollen was hand collected from various maize genotypes, and temporarily stored in 50 ml conical tubes, at 5° C. T0 Amphasys was conducted along with pollen moisture content (PMC) determination of the unmixed control pollen. Amphasys provides a reliable determination of pollen viability using an impedance flow cytometer, which measures the electrical properties of pollen grains. Viability at T0 was 97% with a PMC of 57% using the standard overnight oven method. The pollen was mixed with charcoal powder (activated charcoal) at various percentages. Activated charcoal is often used to absorb toxic substances. Mixed samples were then stored at 5° C., in uncapped 50 mL tubes. Timepoint data was collected at days 1 and 6, using Amphasys when the concentration of charcoal would allow. Small quantities of sample were suspended in Ampha 6 media and then filtered with a 150 μm filter to remove any large particles that might affect the fluidics on the Amphasys. […] Used in lower quantities, 2.5-25% in this case, viability remained as high as 92% at 6 days storage.
# In continued efforts to test different substances for the purposes of pollen grain separation, an experiment was conducted with a series of different saccharides to determine efficacy for pollen grain separation and preservation. Mixed pollen was collected from various actively-shedding maize plants grown in the greenhouse. Hand collection was done with a funnel and screen to remove anthers. The bulk pollen sample was divided into four equal portions, each of which was approximately 5 mL in volume. Each sample of pollen was stored in a capped 50 mL conical tube at 5° C. overnight and its viability was tested using Amphasys roughly 24 hours after collection. A 1:1 volume ratio of one of three different types of sugars was added to each tube so that the amount of sugar was equal to the amount of pollen in each tube. […]
# wheat pollen = assay: Wheat pollen viability by Amphasys after anther storage; type: cell-based
# Description: In order to determine whether the method of maintaining pollen separation was effective in other plant species, experiments were conducted with wheat. Wheat heads of Grandin wheat variety were collected at early emergence stage and post-emergence stage. At the post emergence stage, a few anthers were exposed on the wheat heads. The anthers were collected from a subsample of the heads and the collected anthers were ground with a nylon pestle in 1.5 mL of Ampha 6 media, filtered, and run through the Amphasys system to measure T0 viability. Amphasys provides a reliable determination of pollen viability using an impedance flow cytometer, which measures the electrical properties of pollen grains.
# A second subsample of the early emergence stage and post-emergence wheat heads were taken from different regions of each head. These samples were stored whole at 5° C. in cryo vials. The samples in the vials had either no storage medium, lactose particulate storage medium, or lactose (Lab grade D-lactose monohydrate, RPI #L26100-1000.0) combined with 2% Sipernat® 340 storage medium. After storage for either 3 or 14 days, pollen was extracted from the stored anthers using the nylon pestle, and viability was determined using Amphasys.
# rice pollen = assay: Rice pollen viability by Amphasys after anther storage; type: cell-based
# Description: Another experiment was conducted to test the efficacy of maintaining separation of pollen grains in rice. Rice anthers were collected from a pool of cut back glumes. One sample of the anthers was ground with a nylon pestle in 1.5 mL of Ampha 6 media, filtered, and run through the Amphasys system to measure T0 viability. Amphasys provides a reliable determination of pollen viability using an impedance flow cytometer, which measures the electrical properties of pollen grains.
# A second subsample of the anthers was divided into three groups that were stored whole at 5° C. in cryo vials. […]. The samples in the vials had either no storage medium, lactose particulate storage medium, or chemical grade lactose combined with 2% Sipernat® 340 storage medium. After storage for either 4 days or 10 days, pollen was extracted from the stored anthers using the nylon pestle, and viability was determined using Amphasys.
# [2] = Flowability / clumping observation of pollen-substance mixtures; type: physicochemical; conditions: 1:1 pollen to sugar, 4° C.
# maize pollen [3] = assay: Germination assay of stored maize pollen (pollen tube formation); type: cell-based; conditions: equal portion with pollen, 20 hours of storage at 4 degrees Celsius
# Description: Casein and cellulose were both tested separately as possible substances for maintaining or increasing pollen viability. […] Freshly harvested maize pollen was harvested from actively shedding tassels. The pollen was divided into two equal portions, each of which was placed into a 50 ml centrifuge tube. […] Each tube was stored for 24 hours at 4 degrees Celsius. A germination assay was conducted after 24 hours. […] Sonneborn® PD-23 mineral oil was tested as a pollen separation agent. This substance was a liquid at all stages of the described experiment. Freshly harvested pollen from a bulk of maize plants was placed into mineral oil and stored at 4 degree Celsius for a period of 20 hours. After 20 hours, germination media was applied into the oil formulation. The results supported that liquid serves as a proficient storage media for pollen. […] This further supports the concept that separation of pollen grains increases viability.
molecule,measurement,setting,value
OC[C@H]1O[C@@H](O[C@H]2[C@H](O)[C@@H](O)C(O)O[C@@H]2CO)[C@H](O)[C@@H](O)[C@H]1O (some centres unmarked) [lactose],viability,maize pollen [1]; Day 8,77%
same,Early Emergence Heads Viability (%),"wheat pollen; Day 3, stored whole at 5° C.",28-41%
same,Post-emergence Heads Viability (%),"wheat pollen; Day 3, stored whole at 5° C.",27-35%
same,Early Emergence Heads Viability (%),"wheat pollen; Day 14, stored whole at 5° C.",39-44%
same,Post-emergence Heads Viability (%),"wheat pollen; Day 14, stored whole at 5° C.",6-17%
same,Pollen Viability (%),"rice pollen; Day 4, anthers stored whole at 5° C.",57-63%
same,Pollen Viability (%),"rice pollen; Day 10, anthers stored whole at 5° C.",24-27%
same,flowability of pollen in sample,[2],slightly clumpy
OC[C@H]1O[C@H](O[C@H]2O[C@H](CO)[C@@H](O)[C@H](O)[C@H]2O)[C@H](O)[C@@H](O)[C@@H]1O [trehalose],viability,"maize pollen [1]; Day 2, compared to the other 3 samples",sharper decline
same,viability,"maize pollen [1]; after 24 hours of storage, compared to the other samples",slight decline in viability
casein,viability (germination assay),maize pollen [3],"largely, if not completely unviable; also recorded: little to no viability"
